How the values were obtained:
[1] = target: T1, rat intestinal fatty acid binding protein (rI-FABP, SEQ ID NO: 3) variant L24P19C7, 14R 18L 38V 60R 73F 106C 115R 117D, SEQ ID NO: 36 (Rattus norvegicus, UniProt P02693, A74F/L39V/L73A/M19L/Q116R/R107C/V61R/Y118D/Y15R); assay: bilirubin binding to L24P19C7 probe (fluorescence titration)
T1 construct: made in house
Method: Also described are analytical/mathematical methods for calibrating and using the bilirubin probes. Bilirubin probes are calibrated to determine their binding affinity for bilirubin (dissociation constant Kd) under conditions, such as temperature, pH and solution composition, that correspond to samples in which it is desired to know the unbound bilirubin concentration. Binding isotherms are performed in aqueous buffer by measuring the change in fluorescence of the bilirubin probes in response to increasing bilirubin concentrations (“titration data”). The set of fluorescence responses at each bilirubin concentration are fitted with an appropriate equation (“calibration equation”) that correctly describes the fluorescence response as a function of the bilirubin concentration, the probe concentration, specific spectroscopic characteristics, and the Kd. […] Bilirubin probes are derived from a rat intestinal fatty acid binding protein (rI-FABP) as described previously for unbound FFA (FFAu) probes in U.S. Pat. No. 7,601,510, U.S. publication 2010/0298162 and [Huber A H, Zhu […] and […]. Fluorescence Sensor for the Quantification of Unbound Bilirubin Concentrations. Clin Chem 58: 869-876, 2012; Huber […], Zhu B and […]. Fatty acid-specific fluorescent probes and their use in resolving mixtures of different unbound free fatty acids in equilibrium with albumin. […]

[2] = target: T2, rI-FABP (SEQ ID NO: 3) variant L2P14F7 MGI KR14 K27C, MGI - KR14 - 18G 27C 31M 72A (Rattus norvegicus, UniProt P02693, A2G/G32M/INS2I/K101R/K126R/K130R/K131R/K17R/K21R/K28C/K30R/K38R/K47R/K51R/K89R/K8R/K93R/K95R/L73A/M19G); assay: bilirubin binding to L2P14F7 MGI KR14 K27C probe; settings: Table 5, acrylodan
T2 construct: made in house
T2 sequence (P02693 with tags, fused parts or gaps with the stated changes): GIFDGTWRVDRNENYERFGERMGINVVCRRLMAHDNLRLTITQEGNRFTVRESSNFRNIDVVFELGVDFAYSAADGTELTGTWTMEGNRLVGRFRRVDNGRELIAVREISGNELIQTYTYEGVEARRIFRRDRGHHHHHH
Method: (§1) Also described are analytical/mathematical methods for calibrating and using the bilirubin probes. Bilirubin probes are calibrated to determine their binding affinity for bilirubin (dissociation constant Kd) under conditions, such as temperature, pH and solution composition, that correspond to samples in which it is desired to know the unbound bilirubin concentration. Binding isotherms are performed in aqueous buffer by measuring the change in fluorescence of the bilirubin probes in response to increasing bilirubin concentrations (“titration data”). The set of fluorescence responses at each bilirubin concentration are fitted with an appropriate equation (“calibration equation”) that correctly describes the fluorescence response as a function of the bilirubin concentration, the probe concentration, specific spectroscopic characteristics, and the Kd.

[3] = target: T3, rI-FABP (SEQ ID NO: 3) variant L22P33 A10, 38R 72A 73N 106S 115C (Rattus norvegicus, UniProt P02693, A74N/L39R/L73A/Q116C/R107S); assay: bilirubin binding to L22P33A10 probe; settings: Table 5, acrylodan
T3 construct: made in house
T3 sequence (P02693 with tags, fused parts or gaps L39R/L73A/A74N/R107S/Q116C): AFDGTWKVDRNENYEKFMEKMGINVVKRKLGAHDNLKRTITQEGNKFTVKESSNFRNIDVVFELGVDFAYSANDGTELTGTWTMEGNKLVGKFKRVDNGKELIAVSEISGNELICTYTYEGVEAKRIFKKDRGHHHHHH
Method: as §1

[4] = target: T4, rI-FABP (SEQ ID NO: 3) variant L24P19 C7 K27K 22C, 14R 18L 22C 38V 60R 73F 106C 115R 117D (Rattus norvegicus, UniProt P02693, A74F/G23C/L39V/L73A/M19L/Q116R/R107C/V61R/Y118D/Y15R); assay: bilirubin binding to L24P19C7 22C probe; settings: Table 5, acrylodan
T4 construct: made in house
T4 sequence (P02693 with tags, fused parts or gaps Y15R/M19L/G23C/L39V/V61R/L73A/A74F/R107C/Q116R/Y118D): as the sequence (P02693 with tags, fused parts or gaps L39R/L73A/A74N/R107S/Q116C) above, with Y14R, M18L, G22C, R38V, V60R, N73F, S106C, C115R, Y117D counted along it
Method: as §1
. […] The optimal probe performance was obtained with cysteine at positions 25 or 26.

[5] = target: T5, rI-FABP (SEQ ID NO: 3) variant BL2P2 B6, 14R 18L 31C 38V 60R 73V 106A 115R 117D (Rattus norvegicus, UniProt P02693, A74V/G32C/L39V/L73A/M19L/Q116R/R107A/V61R/Y118D/Y15R); assay: bilirubin binding to BL2P2B6 probe; settings: Table 5, acrylodan
T5 construct: made in house
T5 sequence (P02693 with tags, fused parts or gaps Y15R/M19L/G32C/L39V/V61R/L73A/A74V/R107A/Q116R/Y118D): as the sequence (P02693 with tags, fused parts or gaps L39R/L73A/A74N/R107S/Q116C) above, with Y14R, M18L, G31C, R38V, V60R, N73V, S106A, C115R, Y117D counted along it
Method: as §1

T1 sequence (P02693 with tags, fused parts or gaps Y15R/M19L/L39V/V61R/L73A/A74F/R107C/Q116R/Y118D): as the sequence (P02693 with tags, fused parts or gaps L39R/L73A/A74N/R107S/Q116C) above, with Y14R, M18L, R38V, V60R, N73F, S106C, C115R, Y117D counted along it

Kd ([1]; 22° C., aqueous bilirubin, acrylodan label): 22 nM
Kd ([1]; Table 5, acrylodan): 35 nM
Kd [2]: 350 nM
Kd [3]: 245 nM
Kd [4]: 71 nM
Kd [5]: 137 nM
SMILES: C=CC1=C(C)/C(=C/c2[nH]c(Cc3[nH]c(/C=C4\NC(=O)C(C)=C4C=C)c(C)c3CCC(=O)O)c(CCC(=O)O)c2C)NC1=O [bilirubin]

Source: US10295551B2, “Development and use of fluorescent probes of unbound bilirubin” (Alan Marc Kleinfeld, priority 2011, dated 2019)
